Assay results as given in US8669346B2, “Bone marrow targeting peptides” (Case Western Reserve University, priority 2010, dated 2014).
Entries after “also recorded” stand apart in the source; their conditions may differ. Where no end group is shown, it is not given here.

Columns and labels:
bone marrow [1] = assay: in vivo phage display screening; sequencing of phage plaques after the 5th round of injection; parameters: species or system C57BU6 mice; settings: for Lung / R. Leg (IRR) / L. Leg (Non-IRR): number of sequenced plaques with this sequence; for Lung: after last injection (Table II); for Sequence copy number C BM: control bone marrow; for Sequence copy number C BM / Sequence copy number Irr BM: 20 plaques per organ isolate; for Sequence copy number Irr BM: irradiated bone marrow; for Sequence copy number Lung: 20 plaques per organ isolate (Table III); for R. Leg (IRR): bone marrow of irradiated right leg; for R. Leg (IRR) / L. Leg (Non-IRR): after last injection; for L. Leg (Non-IRR): bone marrow of non-irradiated left leg
Protocol: FIG. 2 illustrates schematic view of a phage screening strategy in accordance with an aspect of the application. The entire procedure was repeated 5 times to eliminate non-specific phage. On the fifth extraction, phage plaques were isolated from multiple organs and individually collected, expanded and sequenced.
(§1) C57BU6 mice had their right leg irradiated then, 24 h later, a phage library was injected and allowed to circulate, bone marrow was then harvested and the phage pool isolated. Phage were amplified and injected into the next mouse, and this process repeated a total of five times. The phage pool was then analysed from irradiated and non-irradiated legs and the sequences determined. Individual phage were then amplified, injected into irradiated mice and tissue distribution assessed. Table 1 lists the different peptides that came out of the sequencing from plaques plated after the last injection.
The screening methodology employed for isolating bone marrow-binding peptide sequences via phage display is illustrated in FIG. 2. Included in our screening strategy was the idea of obtaining some bone marrow-binding peptides that had high affinity for irradiated bone marrow, which, although not a required feature for targeting UCB cells to marrow, could be useful for engraftment into hosts where radiation treatment is part of the conditioning regimen. After the 5th round of phage injections, phage was isolated from lungs and from irradiated and non-irradiated bone marrow and sequenced (20 plaques per organ isolate).

bone marrow [2] = assay: phage playoff screen, phage titer (PFU) per gram of tissue (FIG. 3); type: in vivo; settings: equimolar phage injected, single mouse
Protocol: FIG. 3 illustrates a chart showing the results of a phage “playoff screen” where equimolar amounts of phage were injected into a mouse and plaque forming units (PFU) quantified.
We conducted a “playoff screen” to confirm bone marrow-targeting specificity. To perform a Playoff Screen, selected phage, along with a randomly selected phage from the pre-selected phage pool, were injected at equi-molar amounts into irradiated and non-irradiated mice, the bone marrows extracted, weighed and assayed for phage titer per gram of tissue; an example of the results of a Playoff Screen is shown in FIG. 3. While the data shown here are from only a single mouse, the results were important in several aspects.

UCB CD34+ cells [3] = assay: MTT assay, toxicity on coated cells; type: cell-based, human; settings: data not shown
Protocol: (§2) The CCP molecule has three primary components: One, the targeting peptide sequence; two, a linker sequence containing a biotinylated amino acid; and, three a lipid moiety for integration into the cell membrane (FIG. 4). Once synthesized, all CCP molecules are tested for purity and molecular weight using HPLC and mass spectroscopy (located in the Puget Sound Blood Center); for their ability to coat UCB CD34+ cells using flow cytometry, for any toxicity effects on progenitors using MTT and hematopoietic colony forming unit (CFU) assays.
(§3) Sequences from this initial round of selection (CALFFV (SEQ ID NO:1), RAPGGET (SEQ ID NO:41), RKVVVGS (SEQ ID NO: 4) and control RSR) were contracted out to commercial vendors for synthesis into CCPs. One single-hit sequence from bone marrow, RKVVVGS (SEQ ID NO:4), termed “RKV”, was successfully synthesized, purified, and its molecular weight validated by mass spectroscopy.

UCB CD34+ cells [4] = assay: cell coating by CCP, flow cytometry using FITC-labeled Streptavidin; type: cell-based, human
Protocol: as §2, §3

bone marrow [5] = assay: spleen and bone marrow-targeting of UCB cells coated with RKV-CCP, qRT-PCR of human ALU sequences (FIG. 5); type: in vivo, mice; settings: 3 weeks post injection
Text: FIG. 5 illustrates a chart showing ALU qRT-PCR quantification of human UCB cell numbers. The y-axis indicates human cell numbers calculated from a human cell standard curve. RKV=RKV-coated human UCB cells; NC=Non-coated human UCB cells; P=Plasma-injected. ρ values are from Student's t test between RKV and NC samples. The squares indicate the individual values for the RKV samples.
Preliminary spleen and bone marrow-targeting of UCB cells has already been conducted with the RKV peptides as a CCP molecule (RKV-CCP). UCB cells were isolated using a discontinuous Percol gradient, red blood cells were lysed with ammonium chloride, and the cells were incubated at 37° C. for a total of 10 min with RKV-CCP molecule (30 μg/ml), centrifuged, washed and stored at 4° C. until injected. Progenitors from two separate UCB units were coated and tested. Mice were sub-lethally irradiated with 250 cGy and injected with 1.0×10^8 RKV-CCP coated or non-coated UCB cells, or plasma-only control; 2 mice per group per UCB sample for a total of 4 mice per injection group. Bone marrow, spleen and blood were collected 3 weeks post injection. qRT-PCR was then conducted to assess human ALU sequences. The number of human cells found in the marrow was derived from a qRT-PCR standard curve of known amounts of human cell mixed with murine […] cells. […] Plasma-injected mice had essentially no signal.

spleen = assay: isolated phage injected into whole body irradiated mice; type: in vivo
bone marrow [6] = assay: distribution of individual phage injected into mice whose right leg was irradiated (FIG. 1); type: in vivo
Protocol: FIG. 1 illustrates the distribution of individual phage injected into mice whose right leg was irradiated. The amount of phage was normalized to tissue mass.
as §1

VGVRIGGSLRPHSSN (listed as Homo sapiens)
Lung (bone marrow [1]): 1

CALFFV (listed as Homo sapiens)
Sequence copy number C BM (bone marrow [1]): 0
Sequence copy number Irr BM (bone marrow [1]): 4
Sequence copy number Lung (bone marrow [1]): 1
R. Leg (IRR) (bone marrow [1]): 4
Lung (bone marrow [1]): 1

GIRVMEK (listed as Homo sapiens)
Sequence copy number C BM (bone marrow [1]): 0
Sequence copy number Irr BM (bone marrow [1]): 2
Sequence copy number Lung (bone marrow [1]): 0
R. Leg (IRR) (bone marrow [1]): 2

QARNGGR (listed as Homo sapiens)
Sequence copy number C BM (bone marrow [1]): 0
bone marrow specificity in the sequencing screen (bone marrow [1]; in words): no bone marrow specificity
Sequence copy number Irr BM (bone marrow [1]): 0
Sequence copy number Lung (bone marrow [1]): 1
phage levels / binding in lung (bone marrow [2]): high levels; also recorded: highest level
phage levels / titers in bone marrow (bone marrow [2]): low levels
titers in the lung compared with bone marrow (bone marrow [2]): greater

DGRSSRG (listed as Homo sapiens)
Lung (bone marrow [1]): 1

VFSGVEVSSRPHSSN (listed as Homo sapiens)
Lung (bone marrow [1]): 1

RAANTAR (listed as Homo sapiens)
Lung (bone marrow [1]): 1

VSKRDL (listed as Homo sapiens) [V-SKRDL]
R. Leg (IRR) (bone marrow [1]): 1

SSYALI (listed as Homo sapiens) [SS-YALI]
Sequence copy number C BM (bone marrow [1]): 1
Sequence copy number Irr BM (bone marrow [1]): 5
Sequence copy number Lung (bone marrow [1]): 0
R. Leg (IRR) (bone marrow [1]): 5

GRRGGAKPAVASRR (listed as Homo sapiens) [GRR-GGAKPAVASRR]
L. Leg (Non-IRR) (bone marrow [1]): 1

VGPSVGP (listed as Homo sapiens)
L. Leg (Non-IRR) (bone marrow [1]): 1

VVRAK (listed as Homo sapiens)
Lung (bone marrow [1]): 1

SIGHRRE (listed as Homo sapiens)
Sequence copy number C BM (bone marrow [1]): 4
Sequence copy number Irr BM (bone marrow [1]): 0
Sequence copy number Lung (bone marrow [1]): 0
L. Leg (Non-IRR) (bone marrow [1]): 1
phage levels / titers in bone marrow (bone marrow [2]): minimal

GGL-RGGKLAAALE (GGLRGGKLAAALE; listed as Homo sapiens)
Lung (bone marrow [1]): 1

GGNANRR (listed as Homo sapiens)
Lung (bone marrow [1]): 1

RKV: cell coating peptide: RKVVVGS targeting sequence, spacer with biotin-labeled amino acid, lipid moiety for membrane insertion (also: spacer with biotin-labeled amino acid, end not given here, lipid moiety for membrane insertion, end not given here; listed as Homo sapiens)
toxic effects on coated cells (MTT) (UCB CD34+ cells [3]): no toxic effects
ability to coat cells (UCB CD34+ cells [4]): able to coat cells efficiently
human-derived cells in bone marrow compared to control non-coated cells (bone marrow [5]; 1.0×10^8 UCB cells coated at 30 μg/ml, 250 cGy, ρ value 0.09): ~7 ×
UCB cell numbers in bone marrow compared to spleen (bone marrow [5]): approximately 6 times
UCB cell numbers in the spleen compared to uncoated UCB cells (bone marrow [5]; statistically significant): enhanced

GMKGVQL (listed as Homo sapiens)
Lung (bone marrow [1]): 1

GRGDR-R (GRGDRR; listed as Homo sapiens)
Lung (bone marrow [1]): 1

RKVVVGS (listed as Homo sapiens)
binding to spleen (spleen): highly increased binding
Sequence copy number C BM (bone marrow [1]): 0
Sequence copy number Irr BM (bone marrow [1]): 1
Sequence copy number Lung (bone marrow [1]): 0
R. Leg (IRR) (bone marrow [1]): 1
binding in irradiated legs (bone marrow [6]; in words): marked increase in binding
binding in non-irradiated legs (bone marrow [6]; in words): minimal binding
signal in the irradiated leg relative to non-irradiated leg (bone marrow [6]; individual phage, right leg irradiated, phage normalized to tissue mass): approximately 15 ×

DDQSVSRKLAAALE (listed as Homo sapiens)
Sequence copy number C BM (bone marrow [1]): 0
Sequence copy number Irr BM (bone marrow [1]): 3
Sequence copy number Lung (bone marrow [1]): 0
R. Leg (IRR) (bone marrow [1]): 3
increased signal in irradiated leg (bone marrow [6]; individual phage, irradiated versus non-irradiated leg, in words): exception

TS-QLWC (TSQLWC; listed as Homo sapiens)
L. Leg (Non-IRR) (bone marrow [1]): 4

RGLQTGLEGSAWLLECGRA (listed as Homo sapiens)
R. Leg (IRR) (bone marrow [1]): 1

LSTNRFV (listed as Homo sapiens)
L. Leg (Non-IRR) (bone marrow [1]): 1

GDRRDSR (listed as Homo sapiens)
L. Leg (Non-IRR) (bone marrow [1]): 1

GPGLKEM (listed as Homo sapiens)
L. Leg (Non-IRR) (bone marrow [1]): 4

CGYREVSSAALE (listed as Homo sapiens) [-CGYREVSSAALE]
R. Leg (IRR) (bone marrow [1]): 1

RQDGRHG (listed as Homo sapiens)
Sequence copy number C BM (bone marrow [1]): 0
Sequence copy number Irr BM (bone marrow [1]): 1
Sequence copy number Lung (bone marrow [1]): 0
R. Leg (IRR) (bone marrow [1]): 1

LDSSLFN (listed as Homo sapiens)
L. Leg (Non-IRR) (bone marrow [1]): 1

TSLKDDR (listed as Homo sapiens)
Lung (bone marrow [1]): 1

GRELRGQ (listed as Homo sapiens)
L. Leg (Non-IRR) (bone marrow [1]): 1

DLAHDALLAWGPPSINCLTLGAP (listed as Homo sapiens)
R. Leg (IRR) (bone marrow [1]): 1

QNDSASG (listed as Homo sapiens)
Lung (bone marrow [1]): 1

SVAPLRR (listed as Homo sapiens)
Lung (bone marrow [1]): 1

RRSGKLL (listed as Homo sapiens)
L. Leg (Non-IRR) (bone marrow [1]): 2

KVSD-SL (KVSDSL; listed as Homo sapiens)
Lung (bone marrow [1]): 1

DRN-RSA (DRNRSA; listed as Homo sapiens)
Lung (bone marrow [1]): 1

VSGSVR (listed as Homo sapiens)
Lung (bone marrow [1]): 1

KSMARHR (listed as Homo sapiens)
L. Leg (Non-IRR) (bone marrow [1]): 1
Lung (bone marrow [1]): 1

EGGNEV (listed as Homo sapiens) [EGGN-EV]
L. Leg (Non-IRR) (bone marrow [1]): 1
Lung (bone marrow [1]): 1

FSGRRLVSPRPHPSN (listed as Homo sapiens)
Lung (bone marrow [1]): 1

LSTRVER (listed as Homo sapiens)
Lung (bone marrow [1]): 1

RAPGGET (listed as Homo sapiens)
Sequence copy number C BM (bone marrow [1]): 0
Sequence copy number Irr BM (bone marrow [1]): 1
Sequence copy number Lung (bone marrow [1]): 0
